From patent publication US12257228B2, “Cardioversion methods using budiodarone” (Xyra, LLC, priority 2023, dated 2025)
Where two headings read alike, the source gives them in different places.

Columns and labels:
[1] = system: patients with long episodes of either paroxysmal or persistent AFib; experiment: Duration of AFib episodes under incremental b.i.d. doses of budiodarone (pacemaker monitoring); assay type: in vivo; settings: for Average Episode duration: baseline 4.8 hrs
Experimental: (§1) In this example, patients were selected with long episodes of either paroxysmal or persistent AFib. Each of the patients was implanted with a pacemaker which monitored their heart rhythm. Patients were then evaluated for disease progression by monitoring their heart rhythm without budiodarone treatment in order to generate a baseline level of the duration of episodes of AFib. The baseline data was collected over two weeks. Patients were then given incremental doses of budiodarone at 200 mg b.i.d; 400 mg b.i.d.; 600 mg b.i.d.; and 800 mg b.i.d. where each dose was maintained for 2 weeks for a total of 4 treatment periods. A two-week washout period was employed after the completion of the 800 mg b.i.d. treatment period, wherein a washout period is the time after the last treatment to avoid misinterpreting observations about study-related treatments that may have been due to prior therapies. Pacemaker data were downloaded on days 8 and 14 of each two-week cycle and averages for each test period are shown. Blood was collected during each cycle and tested for the concentration of budiodarone.

[2] = Trough plasma concentration of budiodarone during b.i.d. dosing cycles and washout; assay type: in vivo, patients
Experimental: (§2) It is noted that budiodarone concentrations used in the examples below include both the free acid and the free base versions of budiodarone.
as §1

[3] = Budiodarone concentrations in plasma over time after different single doses (FIG. 1); assay type: in vivo, patients
Experimental: as §2
In this example, plasma concentrations of budiodarone were evaluated using different single-dosing amounts of the drug. […] The resulting data was placed on a graph and the data for each concentration provided for both a Cmax for the dose employed as well as a trough value at 6 hours.

[4] = Impact of food on plasma budiodarone concentration, fasting versus fed (FIG. 2); assay type: in vivo, patients
Experimental: This example evaluates the impact on plasma budiodarone concentrations based on a fasting or fed patient. In this example, patients were either fasting or fed before the administration of budiodarone. After budiodarone administration, blood was collected from the patients, and the plasma concentration of budiodarone was determined. FIG. 2 illustrates that in the same dosing of budiodarone, the uptake of budiodarone increased as evidenced by the Cmax values.

[5] = cited from earlier work

- Trough Pk levels ng/ml in plasma ([2]; 200 mg bid, doses approximately 12 hours apart): 2.4 +/ ng/ml
- Trough Pk levels ng/ml in plasma ([2]; 400 mg bid, doses approximately 12 hours apart): 5.2 +/ ng/ml
- Trough Pk levels ng/ml in plasma ([2]; 600 mg bid, doses approximately 12 hours apart): 13.1 +/ ng/ml
- Trough Pk levels ng/ml in plasma ([2]; 800 mg bid, doses approximately 12 hours apart): 19.8 +/ ng/ml
- washout trough concentration as share of the trough concentration at 800 mg b.i.d. ([2]; 2 weeks post 800 mg b.i.d.): about 1.5%
- concentration at 12 h ([2]; human, plasma, 800 mg b.i.d., doses approximately 12 hours apart, read-out: Trough Pk levels ng/ml in plasma): 19.8 ng/mL
- concentration at 2 weeks ([2]; human, plasma, 800 mg b.i.d., washout, 2 weeks post 800 mg bid, read-out: Trough Pk levels ng/ml in plasma): 0.3 ng/mL
- Trough Pk levels ng/ml in plasma ([2]; washout, 2 weeks post 800 mg bid): 0.3 +/ ng/ml
- plasma concentration maintained for over 6 hours ([3]; each single dose at or above 400 mg): greater than 13 ng/mL
- plasma level maintained for at least 6 hours ([3]; high dosing, bolus such as 1,000 mg): above 13 ng/mL
- plasma concentration for up to about 6 hours ([3]; high single dose (about 800 mg to 1200 mg), see FIG. 1): over 40 ng/mL
- Cmax ([3]; human, plasma, oral, 1000 mg, bolus such as 1,000 mg, read-out: Cmax concentration in plasma): > 300 ng/mL
- concentration at 8 h ([3]; human, plasma, oral, 1000 mg, bolus such as 1,000 mg, read-out: plasma concentration in about 8 hours): < 20 ng/mL
- Cmax ([3]; human, plasma, oral, each single dose at or above 400 mg, plasma, read-out: Cmax): > 50 ng/mL
- Cmax ([3]; human, plasma, oral, high single dose (about 800 mg to 1200 mg), see FIG. 1, read-out: Cmax): ≤ 350 ng/mL
- concentration at 6 h ([3]; human, plasma, oral, single dose at 800 mg or 1,000 mg): ~50 ng/mL
- concentration at 8 h ([3]; human, plasma, oral, single dose at 800 mg or 1,000 mg, read-out: plasma concentration at 8 hours): ≥ 15 ng/mL
- shift in time of Cmax in the fed group versus fasted patients ([4]; fed versus fasted patients): about an hour later
- uptake of budiodarone as evidenced by the Cmax values, fed versus fasting ([4]; same dosing of budiodarone, fed versus fasting patients): increased
- effective plasma level within 60 min, maintained for up to 6 hours ([4]; single oral dose of 400-1,000 mg, whether or not taken with food): > 50 ng/mL
Structure (SMILES): CC[C@H](C)OC(=O)Cc1oc2ccccc2c1C(=O)c1cc(I)c(OCCN(CC)CC)c(I)c1 [budiodarone, (S)-sec-butyl2-(3-(4-(2-(diethylamino)ethoxy)-3,5-diiodobenzoyl)benzofuran-2-yl)acetate]
- Average Episode duration ([1]; 200 mg bid for 2 weeks, average of pacemaker downloads on days 8 and 14): 1.7 h
- Average Episode duration ([1]; 400 mg bid for 2 weeks): 0.6 h
- longest average duration of AFib ([1]; 600 mg b.i.d.): 6 min
- Average Episode duration ([1]; 600 mg bid for 2 weeks): 0.1 h
- Average Episode duration ([1]; 800 mg bid for 2 weeks): 0.5 h
- maximum duration AFib levels ([1]; all dosing levels from 400 mg b.i.d. to 800 mg b.i.d.): less than 45 minutes
- Average Episode duration ([1]; two-week washout after 800 mg bid): 2.4
- half-life compared with amiodarone [5]: much shorter half-life than amiodarone
- effect on QT interval ([5]; while reducing episodes of long-duration AFib): without a significant increase in the QT interval
